According to patent publication US9023789B2, “Amylin analogs and pharmaceutical compositions thereof” (Novo Nordisk A/S, priority 2012, dated 2015):
Read-outs that look alike come from different tables or passages of the source. Numbered stars: 1 amine (or outer) side, 2 acyl side, 3 side chain; on linkers, the order of the positions; unused ones are H or OH. Bridge positions count the residues as written; N and C are the ends. Side chains are listed from the residue outwards. Peptide text beside a SMILES is read from it. * marks the point of attachment. C20 diacid = O=C(O)CCCCCCCCCCCCCCCCCCC(=O)*; γGlu = O=C(O)[C@H](CCC(=O)[*:2])N[*:1]

Tests used:
rat calcitonin receptor = target: T1, rat calcitonin receptor (Rattus norvegicus, UniProt P32214); assay: ASSAY (VIII) binding to the rat calcitonin receptor; conditions: Table 7, read-out: rCTR bind IC50
T1 construct: expressed in transfected cells; host or cells: BHK tk'ts 13 (transient, FuGENE 6), membranes
T1 sequence (P32214 25-479 isoform P32214-2 limits assumed): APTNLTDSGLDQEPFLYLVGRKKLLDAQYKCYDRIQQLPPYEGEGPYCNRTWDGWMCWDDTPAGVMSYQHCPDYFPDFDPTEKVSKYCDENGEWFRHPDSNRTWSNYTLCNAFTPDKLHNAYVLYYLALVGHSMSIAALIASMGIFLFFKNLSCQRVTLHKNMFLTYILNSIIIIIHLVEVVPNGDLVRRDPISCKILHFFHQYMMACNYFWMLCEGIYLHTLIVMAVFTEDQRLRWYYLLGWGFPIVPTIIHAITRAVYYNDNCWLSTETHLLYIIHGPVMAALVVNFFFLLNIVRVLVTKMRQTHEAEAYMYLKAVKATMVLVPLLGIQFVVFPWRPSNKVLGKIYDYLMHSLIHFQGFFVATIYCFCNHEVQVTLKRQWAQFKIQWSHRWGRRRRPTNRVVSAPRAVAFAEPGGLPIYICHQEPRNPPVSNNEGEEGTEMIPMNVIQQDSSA
Summary of the method: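 Receptor source: membranes from transiently transfected BHK tk′ts 13 cells expressing rat calcitonin receptor, collected roughly 48 hours after transfection.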

[1] = ASSAY (IV) determination of solubility; assay type: physicochemical
Summary of the method: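 UPLC read-out of polypeptide concentration after centrifugation. Samples: aqueous polypeptide stock ([…]) + 100 mM buffer 1:1, glycylglycine pH 3.0–5.0 or bistrispropane pH 6.0–8.0; 18 h, RT.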

[2] = target: T2, human amylin receptor (membranes from Amylin 3(a)/CRE-luc cells) (Homo sapiens, UniProt O60896+P30988); assay: ASSAY (V) binding to the human amylin receptor (SPA, 125I-rat amylin);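 further: competition binding of cell membranes (35 ng/µL) mixed with SPA beads in 384-well plates at 40 µL total volume, read by scintillation counting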
T2 construct: expressed in transfected cells
T2 sequence (P30988 25-474): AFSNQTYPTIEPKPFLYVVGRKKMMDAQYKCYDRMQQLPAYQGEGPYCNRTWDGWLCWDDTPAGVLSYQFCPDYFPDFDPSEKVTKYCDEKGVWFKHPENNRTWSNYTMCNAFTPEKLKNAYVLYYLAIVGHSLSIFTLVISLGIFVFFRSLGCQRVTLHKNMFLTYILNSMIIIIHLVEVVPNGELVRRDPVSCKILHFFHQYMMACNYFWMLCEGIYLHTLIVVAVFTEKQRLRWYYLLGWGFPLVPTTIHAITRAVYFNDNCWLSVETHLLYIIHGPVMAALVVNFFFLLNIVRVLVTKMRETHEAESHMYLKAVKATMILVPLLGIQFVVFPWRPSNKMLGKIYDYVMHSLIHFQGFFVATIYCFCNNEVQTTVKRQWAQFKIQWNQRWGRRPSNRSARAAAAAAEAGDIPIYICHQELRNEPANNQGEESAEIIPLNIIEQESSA
T2 sequence (O60896 24-148 partner): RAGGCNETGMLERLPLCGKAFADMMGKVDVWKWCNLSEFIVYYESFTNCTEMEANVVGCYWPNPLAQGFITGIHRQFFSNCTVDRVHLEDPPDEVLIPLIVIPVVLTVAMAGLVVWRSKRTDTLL

[3] = target: T3, rat amylin receptor (rat calcitonin receptor + rat RAMP 3) (Rattus norvegicus, UniProt P32214+Q9JJ73); assay: ASSAY (VI) binding to the rat amylin receptor; conditions: for IC50: binding to rat amylin receptor, read-out: rAmylin-R bind IC50
T3 construct: expressed in transfected cells; host or cells: BHK tk'ts 13 (transient, FuGENE 6), membranes
T3 sequence (P32214 25-479 isoform P32214-2 limits assumed): T1 sequence (P32214 25-479 isoform P32214-2 limits assumed)
T3 sequence (Q9JJ73 23-147 partner): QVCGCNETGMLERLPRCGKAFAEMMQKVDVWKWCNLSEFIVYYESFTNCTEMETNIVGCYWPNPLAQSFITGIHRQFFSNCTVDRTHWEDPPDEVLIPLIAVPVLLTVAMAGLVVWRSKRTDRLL
Summary of the method: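 Membranes for this rat amylin receptor binding assay came from BHK tk′ts 13 cells. The cells were transiently transfected with rat calcitonin receptor using the FuGENE® 6 reagent from Roche, as the manufacturer recommends. The cells were collected approximately 48 hours after transfection, and membranes were then prepared.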

[4] = bistrispropane buffer, pH 6.5, read-out: Solubility pH 6.5 Concentration
[5] = bistrispropane buffer, pH 7.5, read-out: Solubility pH 7.5 Concentration
[6] = bistrispropane buffer, pH 6.0, read-out: Solubility pH 6.0 Concentration
[7] = bistrispropane buffer, pH 7.0, read-out: Solubility pH 7.0 Concentration
[8] = bistrispropane buffer, pH 8.0, read-out: Solubility pH 8.0 Concentration
[9] = glycylglycine buffer, pH 3.0, read-out: Solubility pH 3.0 Concentration
[10] = glycylglycine buffer, pH 4.0, read-out: Solubility pH 4.0 Concentration
[11] = glycylglycine buffer, pH 5.0, read-out: Solubility pH 5.0 Concentration
[12] = Table 5, selectivity, hCTR bind IC50 / hAmylin-R bind IC50
[13] = Table 5a, selectivity, hCTR bind IC50 / hAmylin-R bind IC50
[14] = Table 7, human binding selectivity, included for comparison
[15] = Table 7a (preferred compounds), human binding selectivity, included for comparison
[16] = ratio of human calcitonin receptor binding IC50 to human amylin receptor binding IC50
[17] = Table 7, rat binding selectivity, rCTR IC50 / rAmylin-R IC50
[18] = Table 7a (preferred compounds), rat binding selectivity, rCTR IC50 / rAmylin-R IC50
[19] = ratio of rCTR bind IC50 to rAmylin-R bind IC50

CC[C@H](C)[C@H](NC(=O)[C@H](C)NC(=O)CNC(=O)[C@H](Cc1ccccc1)NC(=O)[C@H](CC(N)=O)NC(=O)[C@@H]1CCCN1C(=O)[C@H](CO)NC(=O)[C@H](CO)NC(=O)[C@H](Cc1c[nH]cn1)NC(=O)[C@H](CCCNC(=N)N)NC(=O)[C@H](CC(C)C)NC(=O)[C@H](Cc1ccccc1)NC(=O)[C@H](CC(N)=O)NC(=O)[C@H](C)NC(=O)[C@H](CC(C)C)NC(=O)[C@H](CCCNC(=N)N)NC(=O)[C@H](CCC(N)=O)NC(=O)[C@@H](NC(=O)[C@H](C)NC(=O)[C@@H]1CSSC[C@H](NC(=O)[C@H](CCCCN)NC(=O)CC[C@H](NC(=O)CCCCCCCCCCCCCCCCCCC(=O)O)C(=O)O)C(=O)N[C@@H](CC(N)=O)C(=O)N[C@@H]([C@@H](C)O)C(=O)N[C@@H](C)C(=O)N[C@@H]([C@@H](C)O)C(=O)N1)[C@@H](C)O)C(=O)N1CCC[C@H]1C(=O)N[C@@H](CO)C(=O)N[C@@H](CO)C(=O)N[C@H](C(=O)N[C@@H](CC(N)=O)C(=O)N[C@H](C(=O)NCC(=O)N[C@@H](CO)C(=O)N[C@@H](CCC(=O)O)C(=O)N[C@H](C(=O)N[C@@H](Cc1ccc(O)cc1)C(N)=O)[C@@H](C)O)C(C)C)[C@@H](C)O [Example 23]
IC50 (rat calcitonin receptor): 79.9 nM
solubility at 18 h [1, 4]: ≥ 200 µM
solubility at 18 h [1, 5]: ≥ 200 µM
solubility at 18 h [1, 6]: ≥ 200 µM
solubility at 18 h [1, 7]: ≥ 200 µM
solubility at 18 h [1, 8]: ≥ 200 µM
solubility at 18 h [1, 9]: ≥ 200 µM
solubility at 18 h [1, 10]: ≥ 200 µM
solubility at 18 h [1, 11]: ≥ 200 µM
Ratio hCT/hAmylin binding [2, 12]: 25.0
Ratio hCT/hAmylin binding [2, 13]: 25.0
Ratio hCT/hAmylin binding ([2]; Table 5b, selectivity, hCTR bind IC50 / hAmylin-R bind IC50): 25.0
Ratio hCT/hAmylin binding ([2]; Table 5c, selectivity, hCTR bind IC50 / hAmylin-R bind IC50): 25.0
Ratio hCT/hAmylin binding [2, 14]: 25.0
Ratio hCT/hAmylin binding [2, 15]: 25.0
Ratio hCT/hAmylin binding [2, 16]: 25.0
IC50 ([3]; Table 7): 1.12 nM
Ratio rCT/rAmylin binding [3, 17]: 71.3
Ratio rCT/rAmylin binding [3, 18]: 71.3
Ratio rCT/rAmylin binding [3, 19]: 71.3

CC[C@H](C)[C@H](NC(=O)[C@H](C)NC(=O)CNC(=O)[C@H](Cc1ccccc1)NC(=O)[C@H](CC(N)=O)NC(=O)[C@@H]1CCCN1C(=O)[C@H](CO)NC(=O)[C@H](CO)NC(=O)[C@H](Cc1c[nH]cn1)NC(=O)[C@H](CCCNC(=N)N)NC(=O)[C@H](CC(C)C)NC(=O)[C@H](Cc1ccccc1)NC(=O)[C@H](CCC(=O)O)NC(=O)[C@H](C)NC(=O)[C@H](CC(C)C)NC(=O)[C@H](CCCNC(=N)N)NC(=O)[C@H](CCC(N)=O)NC(=O)[C@@H](NC(=O)[C@H](C)NC(=O)[C@@H]1CSSC[C@H](NC(=O)[C@@H](N)CCCCNC(=O)CC[C@H](NC(=O)CC[C@H](NC(=O)CCCCCCCCCCCCCCCCCCC(=O)O)C(=O)O)C(=O)O)C(=O)N[C@@H](CC(N)=O)C(=O)N[C@@H]([C@@H](C)O)C(=O)N[C@@H](C)C(=O)N[C@@H]([C@@H](C)O)C(=O)N1)[C@@H](C)O)C(=O)N1CCC[C@H]1C(=O)N[C@@H](CO)C(=O)N[C@@H](CO)C(=O)N[C@H](C(=O)N[C@@H](CC(N)=O)C(=O)N[C@H](C(=O)NCC(=O)N[C@@H](CCCNC(=N)N)C(=O)N[C@@H](CCC(=O)O)C(=O)N[C@H](C(=O)N[C@@H](Cc1ccc(O)cc1)C(N)=O)[C@@H](C)O)C(C)C)[C@@H](C)O [Example 105] (H-K([γGlu-γGlu-C20 diacid])CNTATCATQRLAEFLRHSSPNFGAIPSSTNVGRETY-NH2; disulfide 2-7; N-terminus assumed)
IC50 (rat calcitonin receptor): 452 nM
solubility at 18 h [1, 4]: ≥ 200 µM
solubility at 18 h [1, 5]: ≥ 200 µM
solubility at 18 h [1, 6]: ≥ 200 µM
solubility at 18 h [1, 7]: ≥ 200 µM
solubility at 18 h [1, 8]: ≥ 200 µM
solubility at 18 h [1, 9]: ≥ 200 µM
solubility at 18 h [1, 10]: ≥ 200 µM
solubility at 18 h [1, 11]: ≥ 200 µM
IC50 ([2]; Table 4, read-out: hAmylin-R bind IC50): 0.957 nM
Ratio hCT/hAmylin binding [2, 12]: 14.7
Ratio hCT/hAmylin binding [2, 13]: 14.7
Ratio hCT/hAmylin binding [2, 14]: 14.7
Ratio hCT/hAmylin binding [2, 15]: 14.7
Ratio hCT/hAmylin binding [2, 16]: 14.7
IC50 ([3]; Table 7): 2.86 nM
Ratio rCT/rAmylin binding [3, 17]: 158.2
Ratio rCT/rAmylin binding [3, 18]: 158.2
Ratio rCT/rAmylin binding [3, 19]: 158.2

CC[C@H](C)[C@H](NC(=O)[C@H](C)NC(=O)CNC(=O)[C@H](Cc1ccccc1)NC(=O)[C@H](CC(N)=O)NC(=O)[C@@H]1CCCN1C(=O)[C@H](CO)NC(=O)[C@H](CO)NC(=O)[C@H](Cc1c[nH]cn1)NC(=O)[C@H](CCCNC(=N)N)NC(=O)[C@H](CC(C)C)NC(=O)[C@H](Cc1ccccc1)NC(=O)[C@H](CCC(=O)O)NC(=O)[C@H](C)NC(=O)[C@H](CC(C)C)NC(=O)[C@H](CCCNC(=N)N)NC(=O)[C@H](CCC(N)=O)NC(=O)[C@@H](NC(=O)[C@H](C)NC(=O)[C@@H]1CSSC[C@H](NC(=O)[C@@H](N)CCCCNC(=O)CC[C@H](NC(=O)CC[C@H](NC(=O)CCCCCCCCCCCCCCCCCCC(=O)O)C(=O)O)C(=O)O)C(=O)N[C@@H](CC(N)=O)C(=O)N[C@@H]([C@@H](C)O)C(=O)N[C@@H](C)C(=O)N[C@@H]([C@@H](C)O)C(=O)N1)[C@@H](C)O)C(=O)N1CCC[C@H]1C(=O)N[C@@H](CO)C(=O)N[C@@H](CO)C(=O)N[C@H](C(=O)N[C@@H](CC(N)=O)C(=O)N[C@H](C(=O)NCC(=O)N1CCC[C@H]1C(=O)N[C@@H](CCC(=O)O)C(=O)N[C@H](C(=O)N1CCC[C@H]1C(N)=O)[C@@H](C)O)C(C)C)[C@@H](C)O [Example 125] (H-K([γGlu-γGlu-C20 diacid])CNTATCATQRLAEFLRHSSPNFGAIPSSTNVGPETP-NH2; disulfide 2-7 (inferred); N-terminus assumed)
IC50 (rat calcitonin receptor): 1.61 nM
solubility at 18 h [1, 4]: ≥ 200 µM
solubility at 18 h [1, 5]: ≥ 200 µM
solubility at 18 h [1, 6]: ≥ 200 µM
solubility at 18 h [1, 7]: ≥ 200 µM
solubility at 18 h [1, 8]: ≥ 200 µM
solubility at 18 h [1, 9]: ≥ 200 µM
solubility at 18 h [1, 10]: ≥ 200 µM
solubility at 18 h [1, 11]: ≥ 200 µM
Ratio hCT/hAmylin binding [2, 12]: 0.4
Ratio hCT/hAmylin binding [2, 14]: 0.4
Ratio hCT/hAmylin binding [2, 15]: 0.4
IC50 ([3]; Table 7): 0.152 nM
Ratio rCT/rAmylin binding [3, 17]: 10.6
Ratio rCT/rAmylin binding [3, 18]: 10.6
